Test results from patent publication US20210292340A1, “CELL NECROSIS INHIBITOR, PREPARATION METHOD THEREFOR AND USE THEREOF” (SHANGHAI INSTITUTE OF ORGANIC CHEMISTRY, CHINESE ACADEMY OF …, priority 2018, published 2021).

Tested on: Jurkat (FADD−/−) cells
Experiment: Inhibition of TNF-induced programmed Jurkat (FADD−/−) cell necrosis (Cell Titer-Glo)
Format: cell-based, human
Conditions: Homo sapiens, Jurkat, 20 h, TNF 10 ng/mL, intracellular ATP level, read-out: Cellular IC50 (M) Jurkat (FADD−/−)
Description: Two replicate wells were set for each concentration of each compound.
Jurkat (FADD^−/−) cells (human-derived peripheral blood leukemia T cell line, with FADD gene knocked out) were cultured in vitro. After growing to logarithmic growth phase, the cells were harvested, and centrifuged at 1000 rpm for 5 min. The supernatant was discarded, and the cells were resuspended in fresh medium and adjusted to a cell density of 5×10^5/mL. The cell suspension was added to the culture plate containing the drug (40 μL per well). In the treatment groups, 10 μL of TNF (tumor necrosis factor, final concentration 10 ng/mL) diluted with the cell culture medium was added to each well, and incubated for 20 h in a cell incubator (37° C., 5% CO2). Subsequently, 50 μL of Cell Titer-Glo solution was added to each well and incubated at room temperature for 10 min. Then, the luminescence was detected on BioTek plate reader to measure the intracellular ATP level. The effect of the test compounds in inhibiting TNF-induced cell necrosis was calculated from the full-activity well and background well (with the untreated DMSO control well as 100% cell viability), and the half inhibitory concentration (IC50) of the compound was calculated by Graphpad Prism statistical software.

Row | Structure (SMILES) | IC50 [M]
1 | CN1C(=O)[C@@H](NC(=O)c2cncc(Oc3ccccc3)c2)COc2ccc3ncccc3c21 [RIP1-193] | 2.95e-07
2 | CN1C(=O)[C@@H](NC(=O)c2cc(Cc3ccccc3)ccn2)COc2cc3ncoc3cc21 [RIP1-221] | 7.31e-09
3 | CN1C(=O)[C@@H](NC(=O)c2cn(Cc3ccccc3)cn2)CSc2ccc3ncccc3c21 [RIP1-094] | 2e-09
4 | Cc1nc2cc3c(cc2[nH]1)OC[C@H](NC(=O)c1coc(Cc2ccccc2)n1)C(=O)N3C [RIP1-065] | > 2e-06
5 | CN1C(=O)[C@@H](NC(=O)c2cc(Cc3ccccc3)on2)CSc2cc3c(ccn3Cc3ccccc3)cc21 [RIP1-085] | > 2e-06
6 | CN1C(=O)[C@@H](NC(=O)c2cnn(Cc3ccccc3)c2)COc2cc3[nH]c(=O)[nH]c3cc21 [RIP1-074] | > 2e-06
7 | CN1C(=O)[C@@H](NC(=O)c2cnn(Cc3ccccc3)c2)CSc2cc3[nH]ncc3cc21 [RIP1-014] | 2.6e-08
8 | COc1ncnc2cc3c(cc12)N(C)C(=O)[C@@H](NC(=O)c1n[nH]c(Cc2c(F)cc(F)cc2F)n1)CO3 [RIP1-157] | 2.49e-07
9 | CN1C(=O)[C@@H](NC(=O)c2n[nH]c(Cc3c(F)cccc3F)n2)COc2cc3ncoc3cc21 [RIP1-183] | 6.15e-09
10 | CN1C(=O)[C@@H](NC(=O)c2n[nH]c(Cc3ccc(F)cc3)n2)COc2cc3occc3cc21 [RIP1-174] | 1.3e-08
11 | CN1C(=O)[C@@H](NC(=O)c2n[nH]c(Cc3ccc(F)cc3)n2)COc2ccc3cnccc3c21 [RIP1-164] | 3.3e-09
12 | CN1C(=O)[C@@H](NC(=O)c2cc(Oc3ccccc3)ccn2)COc2ccc3cnccc3c21 [RIP1-178] | 3.23e-10
13 | CN1C(=O)[C@@H](NC(=O)c2cn(Cc3ccccc3)nn2)CSc2cc3c(ccn3Cc3ccccc3)cc21 [RIP1-084] | > 2e-06
14 | CN1C(=O)[C@@H](NC(=O)c2n[nH]c(Cc3c(F)cc(F)cc3F)n2)COc2ccc3cnccc3c21 [RIP1-162] | 5.4e-08
15 | CN1C(=O)[C@@H](NC(=O)c2n[nH]c(Cc3c(F)cccc3F)n2)COc2ccc3ncccc3c21 [RIP1-168] | 1.1e-08
16 | COc1ncnc2cc3c(cc12)N(C)C(=O)[C@@H](NC(=O)c1n[nH]c(Cc2ccc(F)cc2)n1)CO3 [RIP1-158] | 8e-09
17 | CN1C(=O)[C@@H](NC(=O)c2ccnc(Oc3ccccc3)n2)COc2ccc3ncccc3c21 [RIP1-199] | 4.76e-05
18 | CN1C(=O)[C@@H](NC(=O)c2nnn(Cc3ccccc3)n2)CSc2cc3[nH]ccc3cc21 [RIP1-043] | 1.31e-10
19 | CN1C(=O)[C@@H](NC(=O)c2ncn(Cc3ccccc3)n2)CSc2cc3c(ccn3Cc3ccccc3)cc21 [RIP1-086] | > 2e-06
20 | COc1ncnc2cc3c(cc12)N(C)C(=O)[C@@H](NC(=O)c1n[nH]c(Cc2ccccc2F)n1)CO3 [RIP1-160] | 2.2e-09
21 | CN1C(=O)[C@@H](NC(=O)c2cn(Cc3ccccc3)nn2)COc2cc3[nH]c(C(F)(F)F)nc3cc21 [RIP1-078] | 3.11e-08
22 | CN1C(=O)[C@@H](NC(=O)c2n[nH]c(Cc3ccc(F)cc3)n2)COc2ccc3ncccc3c21 [RIP1-171] | 1.4e-08
23 | CN1C(=O)[C@H](NC(=O)c2cc(Cc3ccccc3)on2)COc2cc3c(ccn3C)cc21 [RIP1-080] | > 2e-06
24 | Cc1ccc(Cc2cc(C(=O)N[C@H]3CSc4cc5[nH]ccc5cc4N(C)C3=O)n(C)n2)cc1 [RIP1-044] | 1.91e-08

Row | Structure (SMILES) | IC50 [M]
25 | CN1C(=O)[C@@H](NC(=O)c2cc(Cc3ccccc3)on2)CSc2cc3c(ccn3C)cc21 [RIP1-009] | 1.08e-09
26 | CN1C(=O)[C@@H](NC(=O)c2cncn2Cc2ccccc2)CSc2cc3[nH]ncc3cc21 [RIP1-017] | > 2e-06
27 | CN1C(=O)[C@@H](NC(=O)c2n[nH]c(Cc3cccc(F)c3)n2)COc2ccc3cnccc3c21 [RIP1-165] | 2.5e-09
28 | CN1C(=O)[C@@H](NC(=O)c2cc(Oc3ccccc3)ccn2)COc2cc3[nH]nnc3cc21 [RIP1-181] | 5.92e-10
29 | CN1C(=O)[C@@H](NC(=O)c2cn(Cc3ccccc3)cn2)COc2cc3[nH]ccc3cc21 [RIP1-114] | 8.46e-10
30 | COc1ncnc2cc3c(cc12)N(C)C(=O)[C@@H](NC(=O)c1n[nH]c(Cc2cc(F)cc(F)c2)n1)CO3 [RIP1-176] | 6.9e-09
31 | CN1C(=O)[C@@H](NC(=O)c2n[nH]c(Cc3ccccc3)n2)COc2ccc3cccnc3c21 [RIP1-148] | 1.07e-08
32 | CN1C(=O)[C@H](NC(=O)c2cnn(Cc3ccccc3)c2)COc2cc3c(ccn3C)cc21 [RIP1-082] | > 2e-06
33 | CN1C(=O)[C@@H](NC(=O)c2cnc(Cc3ccccc3)[nH]2)CSc2cc3[nH]ccc3cc21 [RIP1-047] | 2.15e-08
34 | CN1C(=O)[C@@H](NC(=O)c2cnn(Cc3ccccc3)c2)CSc2cc3[nH]ccc3cc21 [RIP1-004] | 5.63e-08
35 | CN1C(=O)[C@@H](NC(=O)c2cc(Nc3ccccc3)ccn2)COc2ccc3ncccc3c21 [RIP1-200] | 8.18e-08
36 | CN1C(=O)[C@@H](NC(=O)c2cnnn2Cc2ccccc2)CSc2cc3c(ccn3C)cc21 [RIP1-052] | > 2e-06
37 | Cc1nc2cc3c(cc2[nH]1)OC[C@H](NC(=O)c1cnnn1Cc1ccccc1)C(=O)N3C [RIP1-064] | > 2e-06
38 | CN1C(=O)[C@@H](NC(=O)c2cc(Cc3ccccc3)on2)CSc2ccc3ncccc3c21 [RIP1-096] | 1.38e-09
39 | CN1C(=O)[C@@H](NC(=O)c2nc(Cc3ccccc3)n[nH]2)COc2cc3[nH]c(=O)[nH]c3cc21 [RIP1-076] | > 2e-06
40 | CN1C(=O)[C@@H](NC(=O)c2n[nH]c(Cc3ccccc3)n2)COc2cc3ncnc(O)c3cc21 [RIP1-187] | 2.59e-07
41 | CN1C(=O)[C@@H](NC(=O)c2cc(Oc3ccccc3F)ccn2)COc2ccc3ncccc3c21 [RIP1-203] | 2.33e-09
42 | Cc1ccc(Cc2cc(C(=O)N[C@H]3COc4cc5[nH]c(C)nc5cc4N(C)C3=O)n(C)n2)cc1 [RIP1-073] | > 2e-06
43 | CN1C(=O)[C@@H](NC(=O)c2nccc(Oc3ccccc3)n2)COc2cc3nccnc3cc21 [RIP1-215] | 3.45e-07
44 | Cc1nc2cc3c(cc2[nH]1)OC[C@H](NC(=O)c1nnn(Cc2ccccc2)n1)C(=O)N3C [RIP1-071] | 1.71e-08
45 | O=C(N[C@H]1COc2ccc3cccnc3c2NC1=O)c1n[nH]c(Cc2ccccc2)n1 [RIP1-149] | > 2e-06
46 | CN1C(=O)[C@@H](NC(=O)c2cc(Oc3ccccc3)ccn2)COc2cc3ncoc3cc21 [RIP1-186] | 7.52e-10
47 | CN1C(=O)[C@@H](NC(=O)c2cc(Oc3ccccc3)ccn2)COc2ccc3ncccc3c21 [RIP1-179] | 6.7e-10
48 | CN1C(=O)[C@@H](NC(=O)c2ncn(Cc3ccccc3)n2)CSc2ccc3cnccc3c21 [RIP1-103] | 6.75e-09

Row | Structure (SMILES) | IC50 [M]
49 | CN1C(=O)[C@@H](NC(=O)c2n[nH]c(Cc3ccccc3F)n2)COc2cc3nccnc3cc21 [RIP1-208] | 1.49e-09
50 | CN1C(=O)[C@@H](NC(=O)c2cc(Oc3ccccc3)ccn2)COc2cc3ncnc(O)c3cc21 [RIP1-188] | 1.93e-07
51 | CN1C(=O)[C@@H](NC(=O)c2cc(Oc3ccccc3)ccn2)COc2cc3[nH]ccc3cc21 [RIP1-189] | 1.93e-10
52 | CN1C(=O)[C@@H](NC(=O)c2cccc(Oc3ccccc3)n2)COc2ccc3ncccc3c21 [RIP1-194] | 7.28e-06
53 | Cc1nc2cc3c(cc2[nH]1)OC[C@H](NC(=O)c1cccc(Cc2ccccc2)c1)C(=O)N3C [RIP1-066] | 6.7e-07
54 | CN1C(=O)[C@@H](NC(=O)c2cc(Oc3ccccc3)ccn2)COc2cc3nccnc3cc21 [RIP1-177] | 2.03e-09
55 | CN1C(=O)[C@@H](NC(=O)c2n[nH]c(Cc3ccc(F)cc3)n2)COc2cc3ncoc3cc21 [RIP1-185] | 2.72e-09
56 | CN1C(=O)[C@@H](NC(=O)c2n[nH]c(Cc3ccccc3F)n2)COc2cc3ncoc3cc21 [RIP1-206] | 8.18e-10
57 | CN1C(=O)[C@@H](NC(=O)c2n[nH]c(Cc3cccc(F)c3)n2)COc2cc3ncoc3cc21 [RIP1-222] | 5.62e-09
58 | Cc1ccc(Cc2cc(C(=O)N[C@H]3COc4cc5[nH]c(C)nc5cc4N(C)C3=O)nn2C)cc1 [RIP1-072] | 9.65e-08
59 | CN1C(=O)[C@@H](NC(=O)c2cn(Cc3ccccc3)nn2)COc2cc3[nH]ccc3cc21 [RIP1-115] | 3.48e-09
60 | CN1C(=O)[C@H](NC(=O)c2nnc(Cc3ccccc3)o2)COc2cc3c(ccn3C)cc21 [RIP1-081] | > 2e-06
61 | CN1C(=O)[C@@H](NC(=O)c2cc(Oc3cc(F)cc(F)c3)ccn2)COc2ccc3ncccc3c21 [RIP1-205] | 7.11e-09
62 | CN1C(=O)[C@@H](NC(=O)c2nnn(Cc3ccccc3)n2)CSc2cc3c(ccn3C)cc21 [RIP1-058] | 2.53e-10
63 | CN1C(=O)[C@@H](NC(=O)c2nnc(Cc3ccccc3)o2)CSc2cc3[nH]ccc3cc21 [RIP1-041] | 3.79e-10
64 | CN1C(=O)[C@@H](NC(=O)c2ncn(Cc3ccccc3)n2)CSc2ccc3ncccc3c21 [RIP1-093] | 1.15e-09
65 | CN1C(=O)[C@@H](NC(=O)c2cc(Oc3cccnc3)ccn2)COc2ccc3ncccc3c21 [RIP1-210] | 7.8e-09
66 | Cc1nc2cc3c(cc2[nH]1)OC[C@H](NC(=O)c1cnn(Cc2ccccc2)c1)C(=O)N3C [RIP1-062] | > 2e-06
67 | CN1C(=O)[C@@H](NC(=O)c2cn(Cc3ccccc3)nn2)CSc2cc3[nH]ncc3cc21 [RIP1-019] | 6.8e-10
68 | CN1C(=O)[C@@H](NC(=O)c2n[nH]c(Cc3c(F)cccc3F)n2)COc2cc3[nH]nnc3cc21 [RIP1-166] | 2.98e-07
69 | CN1C(=O)[C@@H](NC(=O)c2cc(Cc3ccccc3)on2)CSc2cc3[nH]ccc3cc21 [RIP1-003] | 6.91e-10
70 | CN1C(=O)[C@@H](NC(=O)c2n[nH]c(Cc3c(F)cc(F)cc3F)n2)COc2cc3ncoc3cc21 [RIP1-184] | 3.76e-08
71 | CN1C(=O)[C@@H](NC(=O)c2cn(Cc3ccccc3)nn2)CSc2cc3[nH]ccc3cc21 [RIP1-042] | 1.93e-09
